The test system of experiment [1] is Drosophila melanogaster adult males (wild type Oregon-R strain). The experiment can be described thus: Negative geotaxis assay (height climbed, climbing speed). The following applies: for Height climbed by flies, Mean / Climbing speed of flies, Mean: n=30. The experiment is classed as in vivo. The method, then: (§1) Unless otherwise mentioned, standard methods of fly manipulation were followed. Standard fly medium consisting of agar-agar, maize powder, brown sugar, dried yeast and nipagin was used. Flies were cultured at 22±1° C., 60% RH, and 12 hrs light (9 AM to 9 PM) and 12 hours dark cycle. D. melanogaster wild type Oregon-R strain was used in the experiment. To obtain males for control and drug treatment, flies from identical cultures grown in glass vials were first allowed to lay eggs in milk bottles containing medium. Flies were shifted to fresh bottles every 12 hr. First 4 sets of bottles were discarded. Flies that emerged in subsequent bottles were only used. Those that emerged in the beginning were first discarded and then flies were collected twice at 12 hr interval. Flies collected each time were kept separately in a single bottle. Two days after first collection, males and females from both the bottles were separated. Males were then pooled together and shifted to a new bottle. Flies were used for control or drug treatment two days later.
(§2) Following morning after pooling males for treatment, drugs (Sigma-Aldrich Co, St. Louis, U.S.A.) were first dissolved in distilled water at following concentration: 33.3 mg/ml of strychnine (STR), 40 mg/ml of pentylenetetrazol (PTZ), 20 mg/ml of pilocarpine-hydrochloride (PILO), 20 mg/ml of tetraethylammonium chloride (TEA), 10 mg/ml of lithium chloride (LICA), and 10.5 mg/ml of ethosuximide (ESD). Appropriate volume of freshly made drug solutions were then poured in molten fly media, and mixed thoroughly, to achieve a final concentration of 3.33 mg/ml of STR, 4 mg/ml of PTZ, 2 mg/ml of PILO, 2 mg/ml of TEA, 1 mg/ml of LICA, and 1.05 mg/ml of ESD. For control, i.e., normal food (NF), distilled water of same volume as drug solution was added in the medium and mixed. Following this, the molten media was dispensed in glass vials, stored overnight at 4° C. and then used for above treatment of flies. Thirty male flies were shifted to each of the seven treatment vials, NF, STR, PTZ, PILO, TEA, LICA and ESD. Flies were maintained at 22±1° C., 60% RH, and 12 hrs light (9 AM to 9 PM) and 12 hours dark cycle.
(§3) Negative geotaxis assays for measuring height climbed and climbing speed, and horizontal locomotion assay for measuring distance walked—were performed at room temperature, between 9 AM to 9 PM. They were all performed at a specified area in a room, where same light sources were always used. While measuring various locomotor activities, extreme care was taken to ensure that the room is quiet, and the table onto which assays were performed undisturbed and vibration free. Utmost care was taken to ensure identical handling of flies, in minutest details. For measuring height climbed, climbing speed and distance walked, a single fly was randomly selected at a time. This was achieved by first inverting flies from a given treatment vial into an empty vial and then continuously and gently shaking and inverting both the vials in such a way that a single fly is finally trapped in the empty vial. Once trapped, all the three locomotor activities were measured using the same fly, height climbed, climbing speed and distance walked, in that order. One fly each from NF, STR, PTZ, PILO, TEA, LICA, and ESD, selected randomly, was first scored and then the same exercise was repeated for another two flies. Once a fly was scored for all the three locomotor activities, it was discarded. Flies were particularly checked for intact legs and wings, before they were used in negative geotaxis and horizontal locomotion assays.
(§4) A glass tube of 1.7 cm diameter and […], along with two cotton plugs were used in negative geotaxis and horizontal locomotion assays. The tube was length wise marked with lines at every cm. Three flies from each treatment were assayed. Each fly was assayed 10 times in succession.

The test system is the same in experiment [2]. The experiment can be described thus: Horizontal locomotion assay (distance walked). It is filed as in vivo. The following applies: for Distance walked by flies, Mean: n=30; for distance walked than the control: 31 day of drug withdrawal, result in words. How it is done:
as §1, §2, §3, §4

Where [3] appears, read: 4th day after drug withdrawal (21st day of beginning of treatment).
[4] abbreviates: 31st day after drug withdrawal (48th day of beginning of treatment).
[5] abbreviates: 31st day after drug withdrawal, result in words.
Setting [6] is: day 7 of the beginning of treatment, drug in fly medium.
[7] abbreviates: day 7 of the beginning of treatment, result in words.

Structures can show the parent of a compound that is named as a salt. Marks after values point to notes of the source that are not given here.

`CCC1(C)CC(=O)NC1=O` (centres unmarked) [ESD, ethosuximide]: the “Height climbed by flies, Mean” value in experiment [1] (setting [3]) was 32.66*** cm; in experiment [1] (setting [4]), 19.5*** cm. Besides, the “Climbing speed of flies, Mean” value is reported as 1.5*** cm/sec in experiment [1] (4th day after drug withdrawal) and 1.52*** cm/sec in experiment [1] (31st day after drug withdrawal). The “height climbed compared to NF” value in experiment [1] (4th day after drug withdrawal, result in words) is “increase”. Besides, in experiment [1] (setting [5]), the “climbing speed than the control (Table 2)” value was “greater”. Besides, in experiment [1] (setting [6]), the “Climbing speed, Mean” value came to 0.98 cm/s. Further, the “Height climbed, Mean” value in experiment [1] (setting [6]) is 25.66* cm. Also, the “height climbed compared to NF, the control” value in experiment [1] (setting [7]) was “increase”. Moreover, the figures for the “Distance walked by flies, Mean” value in experiment [2] (4th day after drug withdrawal) and in experiment [2] (31st day after drug withdrawal) were 40.16*** cm marks crossed per minute and 30.63 cm marks crossed per minute, respectively. Further, the “Distance walked, Mean” value in experiment [2] (setting [6]) is recorded as 37.1 cm marks crossed per minute.

For `[Cl-].[Li+]` [LICA, lithium chloride], the figures for the “Height climbed by flies, Mean” value in experiment [1] (setting [3]) and in experiment [1] (setting [4]) were 25.33 cm and 11.4* cm, respectively. The entries for the “Climbing speed of flies, Mean” value in experiment [1] (4th day after drug withdrawal) and in experiment [1] (31st day after drug withdrawal) were 1.22* cm/sec and 1.3*** cm/sec, respectively. In experiment [1] (setting [5]), the “climbing speed than the control (Table 2)” value is recorded as “lower”. Further, the “Climbing speed, Mean” value in experiment [1] (setting [6]) was 1.9*** cm/sec. Moreover, the “Height climbed, Mean” value in experiment [1] (setting [6]) is recorded as 35.8*** cm. The “height climbed compared to NF, the control” value in experiment [1] (setting [7]) is “increase”. Also, the “Distance walked by flies, Mean” value in experiment [2] (4th day after drug withdrawal) is reported as 33*** cm marks crossed per minute; in experiment [2] (31st day after drug withdrawal) it was 6.93*** cm marks crossed per minute. Further, in experiment [2], the “distance walked than the control” value is recorded as “lesser”. The “Distance walked, Mean” value in experiment [2] (setting [6]) was 34.23 cm marks crossed per minute.

On to `CC[C@@H]1C(=O)OC[C@@H]1Cc1cncn1C` [PILO, pilocarpine-hydrochloride], for which the results for the “Height climbed by flies, Mean” value in experiment [1] (setting [3]) and in experiment [1] (setting [4]) were 19.96 cm and 16.46 cm, respectively. The results for the “Climbing speed of flies, Mean” value in experiment [1] (4th day after drug withdrawal) and in experiment [1] (31st day after drug withdrawal) were 1.32** cm/sec and 1.14** cm/sec, respectively. Further, the “Climbing speed, Mean” value in experiment [1] (setting [6]) is 1.52*** cm/sec. The “Height climbed, Mean” value in experiment [1] (setting [6]) is 34.66*** cm. Moreover, the “height climbed compared to NF, the control” value in experiment [1] (setting [7]) is recorded as “increase”. The entries for the “Distance walked by flies, Mean” value in experiment [2] (4th day after drug withdrawal) and in experiment [2] (31st day after drug withdrawal) were 33.83** cm marks crossed per minute and 21.16 cm marks crossed per minute, respectively. Also, the “Distance walked, Mean” value in experiment [2] (setting [6]) is 48.53*** cm marks crossed per minute.

Take `C1CCc2nnnn2CC1` [PTZ, pentylenetetrazol]: the entries for the “Climbing speed of flies, Mean” value in experiment [1] (4th day after drug withdrawal) and in experiment [1] (31st day after drug withdrawal) were 1.25** cm/sec and 1.37*** cm/sec, respectively. In addition, in experiment [1] (setting [5]), the “climbing speed than the control (Table 2)” value is reported as “lower”. In addition, the “Climbing speed, Mean” value in experiment [1] (168 h) is on record as 1.63*** cm/sec. The “Height climbed, Mean” value in experiment [1] (168 h) is listed as 29.13*** cm. In addition, the “height climbed compared to NF, the control” value in experiment [1] (setting [7]) is “increase”. Also, the “Distance walked by flies, Mean” value in experiment [2] (4th day after drug withdrawal) is listed as 28.03*** cm marks crossed per minute; in experiment [2] (31st day after drug withdrawal), 12.5* cm marks crossed per minute. Further, the “Distance walked, Mean” value in experiment [2] (168 h) is 42.5** cm marks crossed per minute. The “distance walked than the control” value in experiment [2] is recorded as “lesser”.

Take `O=C1C[C@@H]2OCC=C3CN4CC[C@]56c7ccccc7N1[C@H]5[C@H]2[C@H]3C[C@H]46` [STR, strychnine]: the “Height climbed by flies, Mean” value in experiment [1] (setting [3]) is 26.26 cm; in experiment [1] (setting [4]) it was 15.8 cm. The “Climbing speed of flies, Mean” value in experiment [1] (4th day after drug withdrawal) is on record as 1.29** cm/sec; in experiment [1] (31st day after drug withdrawal), 1.04* cm/sec. Besides, in experiment [1] (setting [6]), the “Climbing speed, Mean” value is 1.53*** cm/sec. In experiment [1] (setting [6]), the “Height climbed, Mean” value is given as 33.36*** cm. In addition, the entries for the “Distance walked by flies, Mean” value in experiment [2] (4th day after drug withdrawal) and in experiment [2] (31st day after drug withdrawal) were 43.66 cm marks crossed per minute and 27.66 cm marks crossed per minute, respectively. The “Distance walked, Mean” value in experiment [2] (setting [6]) was 39.33* cm marks crossed per minute.

As for `CC[N+](CC)(CC)CC.[Cl-]` [TEA, tetraethylammonium chloride], the “Height climbed by flies, Mean” value in experiment [1] (setting [3]) is recorded as 22.13 cm; in experiment [1] (setting [4]), 16.2 cm. Besides, the “Climbing speed of flies, Mean” value in experiment [1] (4th day after drug withdrawal) stood at 1.11 cm/s. The “Climbing speed, Mean” value in experiment [1] (setting [6]) is listed as 1.67*** cm/sec. In addition, the “Height climbed, Mean” value in experiment [1] (setting [6]) was 32*** cm. Also, in experiment [1] (setting [7]), the “height climbed compared to NF, the control” value is “increase”. Also, the “Distance walked by flies, Mean” value was 26.76*** cm marks crossed per minute in experiment [2] (4th day after drug withdrawal) and 27.16 cm marks crossed per minute in experiment [2] (31st day after drug withdrawal). The “Distance walked, Mean” value in experiment [2] (setting [6]) is 45.1*** cm marks crossed per minute.

For the origin of these results see patent US20050144654A1, “Procedure for screening of neuroactive substance and the associated neural plasticity” (COUNCIL OF SCIENTIFIC & INDUSTRIAL RESEARCH, priority 2003, published 2005).
